Tests used:
Type in all cases: cell-based, human
PT45-P1res cells = assay: Caspase-3/-7 assay in PT45-P1res cells; details: for apoptosis induction after etoposide treatment (caspase-3/-7): inhibitor 10 μmol/L, 20 μg/mL etoposide 24 hours
Procedure: (a) PT45-P1 res cells were transfected with control siRNA or with two L1CAM specific siRNAs. Western blotting for the detection of full-length L1CAM or of HSP90 as a control for equal protein load was performed (upper panel). In parallel, siRNA transfected PT45-P1res cells were treated with 20 μg/mL etoposide or not for 24 hours and caspase-3/-7 activity was determined. (b) siRNA transfected PT45-P1res cells were subjected to L1CAM immunostaining (L1-11A antibody) or staining with an isotype matched control antibody followed by flow cytometry. One representative histogram is shown. (c) siRNA transfected PT45-P1res cells were analysed by western blotting for the detection of full-length L1 CAM, αv-integrin or HSP90 (d) After overnight siRNA transfection, cells were either left untreated or were either treated with 20 μg/mL etoposide or with 5 μg/mL gemcitabine for 24 hours, followed by either AnnexinV/PI staining and flow cytometry (AnnexinV positive cells over basal) or by caspase-3/-7 assay (n-fold induced caspase-3/-7 activity of basal). (e) PT45-P1res cells were either left untreated (w/o) or were treated with 20 μg/mL etoposide in the absence (w/o) or presence of either 5 μg/mL anti L1CAM antibody (Clone L1-11A) or 5 μg/mL isotype matched control antibody. After 24 hours, cells were analysed by AnnexinV/PI staining or by caspase-3/-7 assay. Means±SD from three independent experiments are shown. * indicates p<0.05.
(§1) As described elsewhere (Sebens Müerköster et al., 2006), apoptosis was determined by staining with annexinV/propidium iodide (Biocarta, Hamburg, Germany) and subsequent fluorescence flow cytometry (GalaxyArgon Plus; DAKO Cytomation, Hamburg, Germany) using the FLOMAX software, and by the detection of caspase-3/-7 activity using a homogeneous luminescent assay (Promega, Mannheim, Germany). All samples were measured in duplicates.
(§2) For L1CAM transfection, PT45-P1 cells were seeded into 6 well plates (2×10^5 cells/well), were grown overnight, followed by transfection with 5 μL/well DIMRIE reagent (Invitrogen) and 0.6 μg/well of the following plasmids: pcDNA3.1 (mock) or pcDNA3.1-L1CAM (L1CAM). Upon transfection for 18 hours, 1 mL medium containing 20% FCS was added and cells were left untreated or were treated as indicated for further 24 hours. For knock down of L1CAM, PT45-P1res cells were seeded into 12 well plates (1×10^5 cells/well), were grown overnight followed by transfection with 12 μL/well RNAiFect reagent (Invitrogen) and 2 μg/well of either Stealth negative control siRNA (Invitrogen) or Stealth L1CAM siRNA (Invitrogen). After overnight transfection, cells were either left untreated or treated as indicated for further 24 hours.

L1CAM [1] = assay: L1CAM expression in PT45-P1res cells (western blotting, flow cytometry, real-time PCR); details: for L1CAM expression (full-length 220 kDa and 32 kD fragment): inhibitor 10 μmol/L, 24 hours
Procedure: After washing in PBS, cells grown in 6-well culture plates were detached with 5 mmol/L EDTA in PBS and then washed with PBS once again. Blocking was conducted in 1% BSA/PBS for 60 min. at room temperature followed by incubation with the anti L1CAM antibody L1-11A or an isotype matched control antibody (1:1000, in 1% BSA/PBS) at 4° C. overnight. Then, cells were washed three times in PBS followed by incubation (60 min, 37° C.) with a goat-anti mouse antibody conjugated with Alexa flour 488 (Dianova, Hamburg, Germany) diluted 1:500 in 1% BSA/PBS. After washing in PBS, cells were resuspended in 500 μL PBS and analysed by fluorescence flow cytometry.
(§3) Cells were seeded into 6 well and 12 well plates, respectively, and transfected or treated as indicated. Then, cells were washed once with PBS and lysed with 1 volume of 2×SDS sample buffer (128 mmol/L Tris-Base, 4.6% SDS, 10% glycerol). Samples were heated for 5 minutes at 95° C. and put on ice for 2 minutes. Protein concentrations were determined using the Dc Protein assay (BioRad). Ten μg of protein adjusted to an appropriate volume of SDS sample buffer containing 0.2 mg/mL bromphenolblue (Serva, Heidelberg, Germany) and 2.5% β-mercaptoethanol (Biomol, Hamburg, Germany) were submitted to electrophoresis on a 4-20% ProGel-Tris-glycin-gel (Anamed, Darmstadt, Germany) and immunoblotting was performed as described previously (Arlt et al, 2001). For detection of L1CAM, a monoclonal antibody (clone UJ127 from Acris Antibodies) was diluted at a concentration of 0.4 μg/mL in 5% nonfat milk powder and 0.05% Tween in TBS (blotto) and incubated overnight at 4° C. For detection of the cytoplasmic domain of L1CAM, the pcytL1 antibody (Mechtersheimer et al., 2001) was used at a concentration of 1 μg/mL in blotto and incubated overnight at 4° C. As control of equal protein load, a polyclonal rabbit antibody for HSP90 (Santa Cruz, Heidelberg, Germany) was diluted 1:2000 in blotto. The mouse anti CD51 antibody from Beckman Coulter GmbH (Krefeld, Germany) was used at a concentration of 1:500 in blotto for detection of human αv integrin. Incubation with the primary antibodies was performed overnight at 4° C. For detection of the primary antibodies, anti-mouse and anti-rabbit HRP-linked antibodies (Cell Signaling), respectively, were used at a dilution of 1:2000 in blotto-TBST at room temperature for 1 hour. After washing in TBST, blots were developed using the LumiGlo peroxidase detection kit (Cell Signaling).
2 μg of total RNA were reverse-transcribed into single-stranded cDNA, as described previously (Schafer et al., 1999). Two μL of cDNA and 0.2 μmol/L gene-specific primers were adjusted with RNAse-free water to a volume of 15 μL. To this mixture, 15 μL of iQ SYBR Green Supermix (BioRad) were added. Primers for the detection of L1CAM (Gavert et al., 2005) were used under the following conditions: 95° C./1 min; 95° C./1 min, 52° C./30 see, 72° C./30 see for 40 cycles; 72° C./10 min. Primers for the detection of iNOS were from Biosource (Ratingen, Germany) and used under the following PCR conditions: 95° C./5 min; 95° C./45 sec, 60° C./45 sec, 72° C./45 sec for 40 cycles; 72° C./10 min. For control, β-actin was amplified in parallel using primers from BD Biosciences Clontech. […] Data were collected during annealing steps and were further analysed by using the i-Cycler iQ Optical system software (BioRad). All samples were analysed in duplicates and data are expressed as amount of mRNA in arbitrary units.

[2] = system: L1CAM transfected PT45-P1 cells; assay: Caspase-3/-7 assay in L1CAM transfected PT45-P1 cells; details: inhibitor 10 μmol/L, 20 μg/mL etoposide 24 hours
Procedure: (§4) PT45-P1res cells (a,b) or PT45-P1 cells transfected with L1CAM or an empty control vector (mock) (c,d) were left untreated (w/o) or were either treated with Tapi-0, Tapi-1, GM6001 or L685,458 (each 10 μmol/L) for 24 hours. (a,c) Cellular lysates were subjected to western blotting using either the antibody clone UJ127 from Acris detecting only full-length L1CAM or the pcytL1 antibody detecting also the cytoplasmic part of L1CAM. HSP90 was detected as a control for equal protein load. (b,d) Thirty minutes after treatment with the respective inhibitor, cells were either left untreated or treated with 20 μg/mL etoposide for 24 hours. Then, cells were analysed for caspase-3/-7 activity expressed as n-fold induction of caspase-3/-7 activity of basal. Means±SD from three independent experiments are shown. * indicates p<0.05.
as §1, §2

L1CAM [3] = assay: L1CAM cleavage by western blotting in L1CAM transfected PT45-P1 cells; details: inhibitor 10 μmol/L, 24 hours
Procedure: as §4, §3

[4] = Induction of apoptosis, Nicoletti staining, in HEK293-hL1 cells; details: human; L1-expressing HEK293; C2-ceramide 40 μM or staurosporine 2 μM, 24 h, serum-free, Nicoletti staining; read-out: cells still viable after treatment
Procedure: (§5) Cells (1×10^5 cells per well) were cultured in duplicate in 6 well culture plates and, after washing once with PBS, incubated for the indicated timepoints with or without apoptotic stimuli in serum-free medium. Staurosporine (2 μM), C2-ceramide (40 μM) or cisplatin (17 μM) were used as apoptotic reagents. For hypoxia studies, cells were incubated for different time points under hypoxic conditions (1% O2) using a Reming Bioinstruments chamber and oxygen regulator (Reming Bioinstruments, Redfield, N.Y.).
(§6) For quantification of DNA fragmentation, supernatants were centrifuged at 200×g. The cell pellet was washed once in PBS (pH 7.4) and lysed in a hypotonic lysis buffer (0.1% sodium citrate, 0.1% Triton X-100, 50 μg/ml propidiumiodite) at 4° C. overnight. The nuclei were then analyzed for DNA content by flow cytometry. The staining of cells for flow cytometry with mAbs and PE-conjugated secondary antibodies has been described. Cells were analysed with a FACScan using Cellquest or FlowJo software from Becton Dickinson (Heidelberg, Germany).

[5] = Induction of apoptosis, Nicoletti staining, in HEK293 cells; details: human; wild-type (parental) HEK293; C2-ceramide 40 μM or staurosporine 2 μM, 24 h, serum-free, Nicoletti staining; read-out: cells still viable after treatment
Procedure: as §5, §6

NO release = assay: NO-assay in supernatants of PT45-P1res cells; details: 250 ng/mL IL1-RA 24 hours
Procedure: PT45-P1res cells were transfected with a control siRNA or with a L1CAM specific siRNA. (a) RNA from transfected PT45-P1res cells was subjected to RT and subsequent Real-time PCR using primers specific for iNOS. In parallel, a Real-time PCR was conducted for β-actin, which was used as a control. Results from one representative out of three experiments are shown. Data are expressed as amount of mRNA in arbitrary units. Each sample was measured in duplicates. (b) siRNA transfected cells (16 h) were either left untreated or were treated with 250 ng/mL IL1RA for 24 hours. Then, supernatants were cleared and subjected to a commercial NO assay. The amount of NO was normalized to equal cell number which was determined in parallel (expressed as μmol NO/10^5 cells). (c) siRNA transfected cells (16 h) were either left untreated or were treated with 250 ng/mL IL1-RA and 20 μg/mL etoposide, either alone or in combination for 24 hours. Then, cells were analysed for caspase-3/-7 activity expressed as n-fold induced caspase-3/-7 activity of basal. Means±SD from three independent experiments are shown. * indicates p<0.05.
Cells were seeded for transfection and cultured as described above. […] NO secreted into cell culture supernatants was quantified using the Total nitric oxide (NO) calorimetric assay (R&D Systems). […] Concentrations of measured NO were normalized to the cell numbers determined in parallel.

Compound	apoptosis induction after etoposide treatment (caspase-3/-7) (PT45-P1res cells)	L1CAM expression (full-length 220 kDa and 32 kD fragment) (L1CAM [1])	apoptosis inducing effect of etoposide (caspase-3/-7) [2]	expression of full-length L1CAM and level of the 32 kD fragment (L1CAM [3])	other results
CC(=O)NC(C(=O)O)C(C)(C)SN=O (racemic) [SNAP, S-Nitroso-N-acetyl-D,L-penicillamine]	–	–	–	–	increased caspase activity during L1CAM knock-down (PT45-P1res cells; 200 μmol/L SNAP with 20 μg/mL etoposide, 24 hours): completely reversed the increased caspase activity
CNC(=O)[C@H](Cc1c[nH]c2ccccc12)NC(=O)[C@@H](CC(=O)NO)CC(C)C [GM6001]	did not significantly affect apoptosis induction after etoposide treatment	neither of the inhibitors changed L1 CAM expression	nor affect the apoptosis inducing effect of etoposide	did neither influence the expression of full-length L1CAM nor increased the level of the 32 kD fragment	–
CC(C)C[C@H](NC(=O)[C@H](Cc1ccccc1)C[C@@H](O)[C@H](Cc1ccccc1)NC(=O)OC(C)(C)C)C(=O)N[C@@H](Cc1ccccc1)C(N)=O [L685,458]	did not significantly affect apoptosis induction after etoposide treatment	neither of the inhibitors changed L1 CAM expression	nor affect the apoptosis inducing effect of etoposide	did neither influence the expression of full-length L1CAM nor increased the level of the 32 kD fragment	–
CC(C)C[C@H](CC(=O)NO)C(=O)N[C@@H](Cc1ccc2ccccc2c1)C(=O)N[C@@H](C)C(=O)NCCN [Tapi-1]	did not significantly affect apoptosis induction after etoposide treatment	neither of the inhibitors changed L1 CAM expression	nor affect the apoptosis inducing effect of etoposide	did neither influence the expression of full-length L1CAM nor increased the level of the 32 kD fragment	–
CN[C@@H]1C[C@H]2O[C@@](C)([C@@H]1OC)n1c3ccccc3c3c4c(c5c6ccccc6n2c5c31)C(=O)NC4 [staurosporine]	–	–	–	–	viability at 24 h, 2 μM [4]: 77%; viability at 24 h, 2 μM [5]: 59%
IL1-RA: Interleukin 1 receptor antagonist from R&D Systems	–	–	–	–	etoposide induced caspase activation (PT45-P1res cells; 250 ng/mL IL1-RA, control transfected cells): increased; L1CAM expression (mRNA and protein) (L1CAM [1]; 250 ng/mL IL1-RA, 6 or 24 hours): reduced L1CAM expression; NO levels (NO release; cells with L1CAM knock down): no further reducing effect; NO levels (NO release; control siRNA transfected cells): could be decreased
